Experimental findings from patent US20250248998A1, “LRRK2 Inhibitors” (Brenig Therapeutics, Inc., priority 2022, published 2025) are described below.

Assay [1] addresses T1, LRRK2 WT (Homo sapiens, UniProt Q5S007). In words: Enzymatic activity inhibition against LRRK2 WT (ADP-Glo kinase assay, LRRKtide substrate). Conditions: recombinant LRRK2 WT 36 nM, ATP, 1 h at rt, average Ki. Also on record: purchased SignalChem Biotech, Inc. L10-11G-10. It counts as biochemical. How it is done: Example B. Primary Assays Used to Determine Potency of the LRRK2 Inhibition
Assay for Determining Enzymatic Activity Inhibition Against LRRK2 WT.
Compound activity was determined using recombinant LRRK2 WT protein (SignalChem Biotech, Inc., Cat #L10-11G-10) and LRRKtide substrate (SignalChem Biotech, Inc., Cat #L10-58) in an in vitro enzymatic reaction. The enzymatic reaction was carried out in assay buffer (40 mM TRIS-HCl pH 7.4, 20 mM MgCl2, 0.05 mM DTT, 0.1 mg/mL BSA). The compounds were dispensed into a 384 well Diamond Well Plate (Axigen, Cat #P-384-120SQ-C-S) using the Biomek FX liquid handling system at 80× solutions of compounds in DMSO. The 2× Protein-Substrate mix (final concentration 36 nM of LRRK2 WT and 0.8 μg/μL of LRRKtide) was prepared in the 1× Assay buffer and 4 μL of mixture per well was added into the 384-well white Reaction plate with NBS (Corning, Cat #CLS4513). The 4 μL of LRRKtide substrate w/o LRRK2 WT in the 1× buffer was used for a negative control. Plates were centrifuged for 1 min at 200 g. Next the compounds were added to Reaction plate using Biomek station via following steps: 1 μL of 80× compounds (in DMSO) were mixed thoroughly with 39 μL of 2×10 μM ATP in Assay Buffer, then 4 μL of this mixture was added to Reaction plate with 4 μL of Protein-Substrate mix. Plates were centrifuged for 1 min at 200 g and incubated for 1 hour at rt. Then, 4 μL per well of ADP-Glo reagent (Promega, ADP-Glo™ Kinase Assay, Cat #V9102) was added. Plates were incubated for 30 minutes at rt. Then, 8 μL per well of Kinase detection reagent (Promega, ADP-Glo™ Kinase Assay, Cat #V9102) was added and the luminescence signal was measured with a microplate reader. The % inhibition was then used to calculate the Ki values. The average Ki values are shown in Table B, wherein “A” corresponds to Ki<10.0 nM, “B” corresponds to 10.0 nM K Ki<20.0 nM, “C” 20.0 nM K Ki<50.0 nM, “D” corresponds to 50.0 nM K Ki<100.0 nM and “E” corresponds to Ki>100.0 nM.
Target sequence in this assay (Q5S007 970-2527 limits assumed): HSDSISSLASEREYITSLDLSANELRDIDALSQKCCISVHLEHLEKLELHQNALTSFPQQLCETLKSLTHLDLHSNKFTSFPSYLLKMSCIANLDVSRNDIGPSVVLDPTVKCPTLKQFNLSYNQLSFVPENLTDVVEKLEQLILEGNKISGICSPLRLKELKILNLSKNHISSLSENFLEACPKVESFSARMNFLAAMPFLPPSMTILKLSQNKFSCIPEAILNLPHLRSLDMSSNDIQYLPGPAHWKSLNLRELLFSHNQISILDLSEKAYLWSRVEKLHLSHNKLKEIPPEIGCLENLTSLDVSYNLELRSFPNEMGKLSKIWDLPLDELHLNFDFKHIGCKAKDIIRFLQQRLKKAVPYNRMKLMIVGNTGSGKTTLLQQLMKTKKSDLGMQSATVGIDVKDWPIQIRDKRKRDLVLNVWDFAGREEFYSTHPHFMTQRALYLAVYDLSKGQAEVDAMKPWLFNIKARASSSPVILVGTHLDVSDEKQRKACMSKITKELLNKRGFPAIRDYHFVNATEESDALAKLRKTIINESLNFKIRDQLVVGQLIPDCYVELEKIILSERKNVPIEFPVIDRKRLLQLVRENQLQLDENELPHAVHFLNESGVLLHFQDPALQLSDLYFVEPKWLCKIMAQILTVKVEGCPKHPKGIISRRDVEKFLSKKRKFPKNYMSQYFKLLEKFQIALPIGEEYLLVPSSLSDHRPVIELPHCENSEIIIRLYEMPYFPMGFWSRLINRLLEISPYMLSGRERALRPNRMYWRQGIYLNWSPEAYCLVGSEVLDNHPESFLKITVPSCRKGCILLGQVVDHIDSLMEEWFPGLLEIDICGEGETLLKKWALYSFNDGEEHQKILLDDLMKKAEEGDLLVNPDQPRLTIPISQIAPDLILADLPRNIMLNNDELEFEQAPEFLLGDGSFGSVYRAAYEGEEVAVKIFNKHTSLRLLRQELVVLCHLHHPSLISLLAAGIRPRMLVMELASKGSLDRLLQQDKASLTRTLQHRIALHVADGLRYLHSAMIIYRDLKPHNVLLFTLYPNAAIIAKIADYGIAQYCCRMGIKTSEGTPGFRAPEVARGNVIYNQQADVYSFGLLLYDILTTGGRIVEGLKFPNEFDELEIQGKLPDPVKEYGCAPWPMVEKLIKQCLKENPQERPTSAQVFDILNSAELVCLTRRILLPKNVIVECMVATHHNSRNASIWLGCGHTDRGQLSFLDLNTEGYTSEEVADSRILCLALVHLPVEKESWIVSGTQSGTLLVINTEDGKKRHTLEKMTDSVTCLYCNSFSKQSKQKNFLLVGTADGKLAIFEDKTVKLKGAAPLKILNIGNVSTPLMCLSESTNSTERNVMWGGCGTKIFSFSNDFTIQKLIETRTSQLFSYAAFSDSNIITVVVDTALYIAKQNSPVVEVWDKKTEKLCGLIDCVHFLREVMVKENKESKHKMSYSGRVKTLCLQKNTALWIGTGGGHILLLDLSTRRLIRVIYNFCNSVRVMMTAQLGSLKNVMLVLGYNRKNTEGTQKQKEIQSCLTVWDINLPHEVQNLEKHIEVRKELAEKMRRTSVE

Assay [2] deals with T2, LRRK2[G2019S] (Homo sapiens, UniProt Q5S007, G2019S). In words: Enzymatic activity inhibition against LRRK2[G2019S] (ADP-Glo kinase assay, LRRKtide substrate). It counts as biochemical. Also on record: purchased SignalChem Biotech, Inc. L10-12GG-10. Conditions: recombinant LRRK2[G2019S] 36 nM, ATP, 1 h at rt, average Ki. How it is done: Example A. Primary Assays Used to Determine Potency of the LRRK2 Inhibition
Assay for Determining Enzymatic Activity Inhibition Against LRRK2[G2019S].
Compound activity was determined using recombinant LRRK2[G2019S] protein (SignalChem Biotech, Inc., Cat #L10-12GG-10) and LRRKtide substrate (SignalChem Biotech, Inc., Cat #L10-58) in an in vitro enzymatic reaction. The enzymatic reaction was carried out in assay buffer (40 mM TRIS-HCl pH 7.4, 20 mM MgCl2, 0.05 mM DTT, 0.1 mg/mL BSA). The compounds were dispensed into a 384 well Diamond Well Plate (Axigen, Cat #P-384-120SQ-C-S) using the Biomek FX liquid handling system at the 80× solutions of compounds in DMSO. The 2× Protein-Substrate mix (final concentration 36 nM of LRRK2[G2019S] and 0.8 μg/μL of LRRKtide) was prepared in 1× Assay buffer and 4 μL of mixture per well was added into the 384-well white Reaction plate with NBS (Corning, Cat #CLS4513). The 4 μL of LRRKtide substrate w/o LRRK2[G2019S] in the 1× buffer was used for a negative control. Plates were centrifuged for 1 min at 200 g. Next the compounds were added to the reaction plate using Biomek station via following steps: 1 μL of 80× compounds (in DMSO) were mixed thoroughly with 39 μL of 2×10 μM ATP in Assay Buffer, then 4 μL of this mixture was added to Reaction plate with 4 μL of Protein-Substrate mix. Plates were centrifuged for 1 min at 200 g and incubated for 1 h at rt. Then, 4 μL per well of ADP-Glo reagent (Promega, ADP-Glo™ Kinase Assay, Cat #V9102) was added. Plates were incubated for 30 min at rt. Then, 8 μL per well of Kinase detection reagent (Promega, ADP-Glo™ Kinase Assay, Cat #V9102) was added and the luminescence signal was measured with a microplate reader. The luminescence signal was detected with CLARIOstar Plus (BMG LABTECH) microplate reader. The % inhibition was then used to calculate the Ki values. The average Ki values are shown in Table A, wherein “A” corresponds to Ki<5.0 nM, “B” corresponds to 5.0 nM≤Ki<10.0 nM, “C” 10.0 nM≤Ki<50.0 nM, “D” corresponds to 50.0 nM≤Ki<100.0 nM and “E” corresponds to Ki>100.0 nM.
(In general: ADP-Glo turns the ADP formed in a reaction into a luminescent signal.)
Target sequence in this assay (Q5S007 970-2527 G2019S limits assumed): as the sequence (Q5S007 970-2527 limits assumed) above, with G1050S counted along it

Assay [3] addresses T1, LRRK2 WT. In words: Cell-based NanoBRET target engagement assay in HEK293 cells transfected with LRRK2 WT-NanoLuc fusion vector. Also on record: expressed in transfected cells; host or cells: HEK293 (ATCC). The settings on record: compound treatment 1 h. How it is done:
(§1) Example C. Cell-Based NanoBRET Target Engagement Assay in 11EK293 Cells Transiently Transfected with LRRK2 WT- or LRRK2 (G2019S)-Nano Luc Fusion Vector
(§2) H1EK293 (ATCC) cells were transfected with […] LRRK2 WT or LRRK2 (G2019S) and 9 μg transfection carrier DNA. The transfected cells were treated with the compounds (starting at 1 μM, 10-dose with 3-fold dilution) and reference compounds CEP-701 or Staurosporine (starting at 1 μM, 10-dose with 3-fold dilution); compound treatment time: 1 h. LRRK2 WT and LRRK2 (G2019S) target engagement was measured by NanoBRET assay. Curve fits were performed only when % NanoBret signal at the highest concentration of compounds was less than […]. Assay format: 384-well format, 4000 cells/well. The IC50 values are shown in Table C, wherein “A” corresponds to IC50≤50.0 nM, “B” corresponds to 50.0 nM≤IC50<100.0 nM, “C” corresponds to 100.0 nM≤IC50.
Target sequence in this assay (Q5S007 whole entry): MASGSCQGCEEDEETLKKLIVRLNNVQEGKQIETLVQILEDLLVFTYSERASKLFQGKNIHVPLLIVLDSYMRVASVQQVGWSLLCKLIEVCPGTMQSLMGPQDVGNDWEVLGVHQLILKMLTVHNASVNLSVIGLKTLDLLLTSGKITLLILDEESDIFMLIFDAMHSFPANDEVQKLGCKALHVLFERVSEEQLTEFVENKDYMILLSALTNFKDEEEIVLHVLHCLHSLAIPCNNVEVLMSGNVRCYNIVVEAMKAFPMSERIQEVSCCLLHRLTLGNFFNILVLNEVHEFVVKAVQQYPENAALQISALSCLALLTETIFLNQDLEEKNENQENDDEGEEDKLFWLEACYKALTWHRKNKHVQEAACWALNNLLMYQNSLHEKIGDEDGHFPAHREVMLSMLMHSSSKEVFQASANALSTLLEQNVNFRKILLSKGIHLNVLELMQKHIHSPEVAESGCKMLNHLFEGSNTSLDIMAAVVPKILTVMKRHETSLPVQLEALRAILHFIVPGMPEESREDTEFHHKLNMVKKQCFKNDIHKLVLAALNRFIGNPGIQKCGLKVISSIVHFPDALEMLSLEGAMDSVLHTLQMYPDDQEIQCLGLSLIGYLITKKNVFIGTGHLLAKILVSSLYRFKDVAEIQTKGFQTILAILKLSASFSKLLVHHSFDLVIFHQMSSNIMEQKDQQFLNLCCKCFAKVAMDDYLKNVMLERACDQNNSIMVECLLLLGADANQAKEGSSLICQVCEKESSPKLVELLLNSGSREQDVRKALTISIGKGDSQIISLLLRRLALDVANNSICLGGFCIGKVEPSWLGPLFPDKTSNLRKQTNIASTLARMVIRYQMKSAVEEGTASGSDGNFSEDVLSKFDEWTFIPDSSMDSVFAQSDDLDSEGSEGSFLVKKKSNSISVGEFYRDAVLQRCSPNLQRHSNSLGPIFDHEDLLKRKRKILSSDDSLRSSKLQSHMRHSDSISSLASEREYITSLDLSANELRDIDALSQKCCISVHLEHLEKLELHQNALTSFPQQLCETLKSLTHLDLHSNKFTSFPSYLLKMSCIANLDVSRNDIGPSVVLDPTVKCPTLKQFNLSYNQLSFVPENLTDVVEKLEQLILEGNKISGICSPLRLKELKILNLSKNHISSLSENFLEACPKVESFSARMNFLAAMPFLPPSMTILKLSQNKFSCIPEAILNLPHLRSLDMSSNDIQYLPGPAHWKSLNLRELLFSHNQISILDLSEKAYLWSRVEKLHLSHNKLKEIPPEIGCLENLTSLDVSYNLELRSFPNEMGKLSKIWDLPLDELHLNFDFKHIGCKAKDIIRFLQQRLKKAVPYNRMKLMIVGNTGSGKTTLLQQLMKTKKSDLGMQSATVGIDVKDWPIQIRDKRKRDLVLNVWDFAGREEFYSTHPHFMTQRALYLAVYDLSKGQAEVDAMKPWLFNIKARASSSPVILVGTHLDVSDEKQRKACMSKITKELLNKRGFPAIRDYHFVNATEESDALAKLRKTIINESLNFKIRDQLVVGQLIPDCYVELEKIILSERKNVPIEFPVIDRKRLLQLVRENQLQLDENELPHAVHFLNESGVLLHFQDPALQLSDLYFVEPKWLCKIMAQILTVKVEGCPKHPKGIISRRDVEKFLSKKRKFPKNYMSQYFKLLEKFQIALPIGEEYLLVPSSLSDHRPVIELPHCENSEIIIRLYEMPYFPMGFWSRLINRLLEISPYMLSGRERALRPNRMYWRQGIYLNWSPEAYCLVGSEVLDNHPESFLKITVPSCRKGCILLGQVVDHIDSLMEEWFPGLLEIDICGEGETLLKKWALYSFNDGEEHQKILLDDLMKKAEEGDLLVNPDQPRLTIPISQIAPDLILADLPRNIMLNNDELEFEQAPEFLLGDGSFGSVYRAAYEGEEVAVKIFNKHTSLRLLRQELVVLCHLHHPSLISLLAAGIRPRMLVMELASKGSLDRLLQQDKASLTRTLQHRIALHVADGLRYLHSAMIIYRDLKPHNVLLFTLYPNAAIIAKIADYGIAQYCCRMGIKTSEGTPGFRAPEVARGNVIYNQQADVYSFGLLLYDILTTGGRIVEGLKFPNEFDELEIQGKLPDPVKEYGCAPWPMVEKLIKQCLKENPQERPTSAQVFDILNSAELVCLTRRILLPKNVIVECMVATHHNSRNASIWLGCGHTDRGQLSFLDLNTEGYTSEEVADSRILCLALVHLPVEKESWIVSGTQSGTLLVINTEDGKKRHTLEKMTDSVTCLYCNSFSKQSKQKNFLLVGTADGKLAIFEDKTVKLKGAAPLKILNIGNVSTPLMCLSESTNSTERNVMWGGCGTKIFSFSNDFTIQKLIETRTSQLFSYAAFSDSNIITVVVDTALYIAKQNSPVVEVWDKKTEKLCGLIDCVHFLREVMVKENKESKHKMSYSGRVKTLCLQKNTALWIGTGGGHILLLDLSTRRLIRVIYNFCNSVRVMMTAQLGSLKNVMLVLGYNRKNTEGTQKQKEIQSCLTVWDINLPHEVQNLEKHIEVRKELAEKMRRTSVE

Assay [4] concerns the target T2, LRRK2[G2019S]. In words: Cell-based NanoBRET target engagement assay in HEK293 cells transfected with LRRK2 (G2019S)-NanoLuc fusion vector. Also on record: expressed in transfected cells; host or cells: HEK293 (ATCC). The settings on record: compound treatment 1 h. Here is the method:
as §1, §2
Target sequence in this assay (Q5S007 whole entry G2019S): as the sequence (Q5S007 whole entry) above, with G2019S counted along it
On the technique in general: BRET reads energy transfer from a luciferase to a nearby fluorophore.

By Ki is commonly meant a dissociation constant, usually derived from enzyme kinetics or from competition with a known ligand. Regarding `CC(C)Oc1ccc2[nH]nc(-c3cnnc(N4CC(O)C4)c3)c2c1` [Compound 1, 1-[5-(5-isopropoxy-1H-indazol-3-yl)pyridazin-3-yl]azetidin-3-ol], the figures for the Ki at LRRK2 WT [1] and on LRRK2[G2019S] [2] were 10 to 20 nM and 5 to 10 nM, respectively.
On the same counts, the results for `CC(C)Oc1ccc2[nH]nc(-c3cnnc(N4CCCC4)c3)c2c1` [Compound 5, 5-isopropoxy-3-(6-pyrrolidin-1-ylpyridazin-4-yl)-1H-indazole] are 10 to 20 nM and no more than 5 nM.
On the same counts, the results for `Cc1nnc(-c2n[nH]c3ccc(OC(C)C)cc23)cc1N1CCOCC1` [Compound 10, 4-[6-(5-isopropoxy-1H-indazol-3-yl)-3-methyl-pyridazin-4-yl]morpholine] are no more than 10 nM and 10 to 50 nM.
For `CC(C)Oc1ccc2[nH]nc(-c3cnnc(N4CCOCC4)n3)c2c1` [Compound 13, 4-[5-(5-isopropoxy-1H-indazol-3-yl)-1,2,4-triazin-3-yl]morpholine] the same measures were no more than 10 nM and 5 to 10 nM.
`CC(C)Oc1cccc2[nH]nc(-c3cc(N4CCOCC4)c(=O)n(C)n3)c12` [Compound 15, 6-(4-isopropoxy-1H-indazol-3-yl)-2-methyl-4-morpholino-pyridazin-3-one]: the Ki on LRRK2 WT [1] and at LRRK2[G2019S] [2] was greater than 100 nM in each case.
In the case of `Cn1nc(-c2n[nH]c3ccc(OC(F)(F)F)cc23)cc(N2CCOCC2)c1=O` [Compound 22, 2-methyl-4-morpholino-6-[5-(trifluoromethoxy)-1H-indazol-3-yl]pyridazin-3-one], the Ki at LRRK2 WT [1] and at LRRK2[G2019S] [2] was greater than 100 nM each time.
With `Cc1c(OC(C)C)ccc2[nH]nc(-c3cc(N4CCOCC4)c(=O)n(C)n3)c12` [Compound 24, 6-(5-isopropoxy-4-methyl-1H-indazol-3-yl)-2-methyl-4-morpholino-pyridazin-3-one], the inhibition constant (Ki) at LRRK2 WT [1] and on LRRK2[G2019S] [2] was greater than 100 nM in each case.
`Cn1nc(-c2n[nH]c3ccc4c(c23)CCCO4)cc(N2CCOCC2)c1=O` [Compound 29, 2-methyl-4-morpholino-6-(3,7,8,9-tetrahydropyrano[3,2-e]indazol-1-yl)pyridazin-3-one]: the Ki was 50 to 100 nM on LRRK2 WT [1] and greater than 100 nM at LRRK2[G2019S] [2].
For `Cn1nc(-c2n[nH]c3cc4c(cc23)OCCC4)cc(N2CCOCC2)c1=O` [Compound 31, 2-methyl-4-morpholino-6-(1,6,7,8-tetrahydropyrano[2,3-f]indazol-3-yl)pyridazin-3-one] the same measures were 50 to 100 nM and greater than 100 nM.
For `Cn1nc(-c2n[nH]c3ccc(OC(F)F)cc23)cc(N2CCOCC2)c1=O` [Compound 32, 6-[5-(difluoromethoxy)-1H-indazol-3-yl]-2-methyl-4-morpholino-pyridazin-3-one] the same measures were greater than 100 nM and 50 to 100 nM.
For `Cn1nc(-c2n[nH]c3ccc(S(C)(=O)=O)cc23)cc(N2CCOCC2)c1=O` [Compound 33, 2-methyl-6-(5-methylsulfonyl-1H-indazol-3-yl)-4-morpholino-pyridazin-3-one] the same measures were 50 to 100 nM and greater than 100 nM.
As for `O=S1(=O)CCCC1c1ccc2cnn(-c3cnnc(N4CCCC4)c3)c2c1` (centres unmarked) [Compound 34, 2-[1-(6-pyrrolidin-1-ylpyridazin-4-yl)indazol-6-yl]thiolane 1,1-dioxide], the Ki at LRRK2 WT [1] and at LRRK2[G2019S] [2] was greater than 100 nM each time.
Regarding `CC(C)(C#N)c1ccc2cnn(-c3cnnc(N4CCCC4)c3)c2c1` [Compound 35, 2-methyl-2-[1-(6-pyrrolidin-1-ylpyridazin-4-yl)indazol-6-yl]propanenitrile], the Ki on LRRK2 WT [1] lay within 20 to 50 nM; on LRRK2[G2019S] [2], 50 to 100 nM.
On the same counts, the results for `N#CC1(c2ccc3cnn(-c4cnnc(N5CCCC5)c4)c3c2)CC1` [Compound 36, 1-[1-(6-pyrrolidin-1-ylpyridazin-4-yl)indazol-6-yl]cyclopropanecarbonitrile] are 50 to 100 nM and greater than 100 nM.
With `N#CC1(c2ccc3cnn(-c4cnnc(N5CCCC5)c4)c3c2)CCCCC1` [Compound 37, 1-[1-(6-pyrrolidin-1-ylpyridazin-4-yl)indazol-6-yl]cyclohexanecarbonitrile], the Ki at LRRK2 WT [1] and at LRRK2[G2019S] [2] was greater than 100 nM throughout.
In the case of `N#CC1(c2ccc3cnn(-c4cnnc(N5CCCC5)c4)c3c2)CCCC1` [Compound 39, 1-[1-(6-pyrrolidin-1-ylpyridazin-4-yl)indazol-6-yl]cyclopentanecarbonitrile], the Ki on LRRK2 WT [1] was 20 to 50 nM; on LRRK2[G2019S] [2], 50 to 100 nM.
On the same counts, the results for `Cn1nc(-n2ncc3ccc(C4(C#N)CC4)cc32)cc(N2CCOCC2)c1=O` [Compound 41, 1-[1-(1-methyl-5-morpholino-6-oxo-pyridazin-3-yl)indazol-6-yl]cyclopropanecarbonitrile] are no more than 10 nM and 50 to 100 nM.
For orientation: IC50 means the concentration that gives 50% inhibition. High values mean lower potency, low ones higher potency. Turning to `Cn1nc(-c2n[nH]c3ccc(OC4(C)CC4)cc23)cc(N2CCNCC(C)(O)C2)c1=O` (centres unmarked) [Compound 93, 4-(6-hydroxy-6-methyl-1,4-diazepan-1-yl)-2-methyl-6-[5-(1-methylcyclopropoxy)-1H-indazol-3-yl]pyridazin-3-one], the IC50 against LRRK2 WT [3] and at LRRK2[G2019S] [4] was no less than 100 nM each time.
Regarding `CC(C)N1CCCN(c2cc(-c3n[nH]c4ccc(OC5(C)CC5)cc34)nn(C)c2=O)CC1` [Compound 96, 4-(4-isopropyl-1,4-diazepan-1-yl)-2-methyl-6-[5-(1-methylcyclopropoxy)-1H-indazol-3-yl]pyridazin-3-one], the IC50 at LRRK2 WT [3] and on LRRK2[G2019S] [4] was no more than 50 nM in each case.
